Columns and labels:
ATR = ATR (Homo sapiens (Human), UniProt Q13535); experiment: Cellular ATR inhibition, western blot of CHK1(S345) phosphorylation in hydroxyurea treated cells; format: cell-based; conditions: HT29 cells
Method: In addition to the selective system described above, Example compounds presented here were screened for their ability to inhibit intracellular ATR using a western blot assay to detect phosphorylation of the ATR substrate CHK1(S345) in hydroxyurea treated cells. HT29 cells are plated at 500,000 cells per well in 6-well plates in RPMI media (Sigma R6504) supplemented with 10% foetal bovine serum (Sigma F7524), Penicillin/Streptomycin solution diluted 1:100 (Gibco 15070-063), and fungizone (Gibco, 15290-018), and allowed to adhere overnight at 37° C. in 5% CO2. Compounds are then added to the cell media from a final concentration of 10 μM in 3-fold serial dilutions and the cells are incubated at 37° C. in 5% CO2. After 15 min, hydroxyurea (Sigma H8627) is added to a final concentration of 2.5 mM. After 30 min of treatment with hydroxyurea, the cells are washed in PBS, lysed adding 50 μl of in protein lysis buffer (50 mM Tris pH 7.5, 150 mM NaCl, 1% IGEPAL CO-630 (Sigma, Ref. 542334-100G-A), Phospho Stop (Roche, Ref. 04906837001) and Complete Mini EDTA free (Roche, Ref. 11836170001)). The protein content of the lysates was determined by the modified method of Bradford (Sigma, Ref. B6916). The proteins were resolved by SDS-PAGE and transferred to nitrocellulose membrane (VWR International Eurolab, Ref. 732-4007). The membranes were incubated overnight at 4° C. with antibodies specific for total CHK1 (Santa Cruz Biotechnology, sc-8404), phosphoserine-345 CHK1 (Cell Signaling Technology #2348) they were washed and then incubated with IRDye800 conjugated anti-mouse (Pierce/Cultek, 35521) and Alexa Fluor 680 goat anti-rabbit IgG secondary antibodies (Invitrogen, A21076). The bands were visualized and quantified using an Odyssey infrared imaging system (Li-Cor Biosciences). The percentage of phosphorylated CHK1 vs total CHK1 in cells treated with hydroxyurea was taken as hundred percent of phosphorylation. The percentage of CHK1 phosphorylation is finally plotted against concentration for each compound and EC50s for intracellular ATR inhibition are calculated using ActivityBase from IDBS.

PI3K (p110α/p85α) = PI3K (p110α/p85α) (Homo sapiens (Human), UniProt P42336); experiment: PI3K alpha activity assay (ADP Hunter Plus); format: biochemical; conditions: 50 μM ATP, 30 μM PIP2; read-out: PI3Kα IC50
Method: The kinase activity was measured by using the commercial ADP Hunter™ Plus assay available from DiscoveRx (#33-016), which is a homogeneous assay to measure the accumulation of ADP, a universal product of kinase activity. […] The reaction was carried out for 1 hour at 25° C. Reagent A and B were sequentially added to the wells and plates were incubated for 30 min at 37° C. Fluorescence counts were read in a Victor instrument (Perkin Elmer) with the recommended settings (544 and 580 nm as excitation and emission wavelengths, respectively).

mTOR = mTOR (Homo sapiens (Human), UniProt P42345); experiment: mTOR activity assay (LanthaScreen); format: biochemical
Method: The enzymatic mTOR activity was measured using a LanthaScreen™ kinase activity assay (Invitrogen). The enzyme was purchased from Invitrogen (PV4754), as well as the GFP-labelled substrate (4EBP1-GFP; PV4759) and the Tb-antip4EBP1(pThr46) antibody (PV4757). The assay was performed in 50 Mm HEPES buffer, pH 7.5, containing 1.5 mM MnCl2, 10 mM MgCl2, 1 mM EGTA, 2.5 mM DTT and 0.01% Tween-20. The concentration of the assay components were the following: 0.24 nM mTOR kinase, 400 nM 4EBP1-GFP, […] and serial dilutions of the compound (inhibitor) to be evaluated. After 1 h incubation at room temperature, 20 mM EDTA was used to stop the reaction and terbium-labelled antibody (4 nM) added to detect phosphorylated product. The antibody associates with the phosphorylated product resulting in an increased TR-FRET value. The TR-FRET value (a dimensionless number) was calculated as the ratio of the acceptor signal (GFP, emission at 520 nm) to the donor signal (terbium, emission at 495 nm).

DNA-PK = DNA-PK (Homo sapiens (Human), UniProt P78527); experiment: DNAPK activity assay (ADP Hunter Plus); format: biochemical; conditions: 75 μM ATP
Method: The kinase activity was measured by using the commercial ADP Hunter™ Plus assay available from DiscoveRx (#90-0083), which is a homogeneous assay to measure the accumulation of ADP, a universal product of kinase activity. The enzyme, DNA-PK was purchased from Promega (#V5811). The assay was done following the manufacturer recommendations with slight modifications: Mainly the kinase buffer was replace by 15 mM HEPES, pH 7.5, 10 mM MgCl2, 20 mM NaCl, 1 mM EGTA, 0.1 mg/mL BGG, 0.02% Tween 20. The DNA-PK was assayed in a titration experiment to determine the optimal protein concentration for the inhibition assay. To calculate the […] of the Compounds, serial 1:3 dilutions of the compounds were added to the enzyme at a fixed concentration (2 U/μL). The enzyme was preincubated with the inhibitor and 200 μM DNA substrate and then ATP was added to a final 75 μM concentration. Reaction was carried out for 1 hour at 37° C. Reagent A and B were sequentially added to the wells and plates were incubated for 30 min at RT. Fluorescence counts were read in a EnVision instrument (Perkin Elmer) with the recommended settings (550 and 590 nm as excitation and emission wavelengths, respectively).

Chain of ATR (Q13535 whole entry): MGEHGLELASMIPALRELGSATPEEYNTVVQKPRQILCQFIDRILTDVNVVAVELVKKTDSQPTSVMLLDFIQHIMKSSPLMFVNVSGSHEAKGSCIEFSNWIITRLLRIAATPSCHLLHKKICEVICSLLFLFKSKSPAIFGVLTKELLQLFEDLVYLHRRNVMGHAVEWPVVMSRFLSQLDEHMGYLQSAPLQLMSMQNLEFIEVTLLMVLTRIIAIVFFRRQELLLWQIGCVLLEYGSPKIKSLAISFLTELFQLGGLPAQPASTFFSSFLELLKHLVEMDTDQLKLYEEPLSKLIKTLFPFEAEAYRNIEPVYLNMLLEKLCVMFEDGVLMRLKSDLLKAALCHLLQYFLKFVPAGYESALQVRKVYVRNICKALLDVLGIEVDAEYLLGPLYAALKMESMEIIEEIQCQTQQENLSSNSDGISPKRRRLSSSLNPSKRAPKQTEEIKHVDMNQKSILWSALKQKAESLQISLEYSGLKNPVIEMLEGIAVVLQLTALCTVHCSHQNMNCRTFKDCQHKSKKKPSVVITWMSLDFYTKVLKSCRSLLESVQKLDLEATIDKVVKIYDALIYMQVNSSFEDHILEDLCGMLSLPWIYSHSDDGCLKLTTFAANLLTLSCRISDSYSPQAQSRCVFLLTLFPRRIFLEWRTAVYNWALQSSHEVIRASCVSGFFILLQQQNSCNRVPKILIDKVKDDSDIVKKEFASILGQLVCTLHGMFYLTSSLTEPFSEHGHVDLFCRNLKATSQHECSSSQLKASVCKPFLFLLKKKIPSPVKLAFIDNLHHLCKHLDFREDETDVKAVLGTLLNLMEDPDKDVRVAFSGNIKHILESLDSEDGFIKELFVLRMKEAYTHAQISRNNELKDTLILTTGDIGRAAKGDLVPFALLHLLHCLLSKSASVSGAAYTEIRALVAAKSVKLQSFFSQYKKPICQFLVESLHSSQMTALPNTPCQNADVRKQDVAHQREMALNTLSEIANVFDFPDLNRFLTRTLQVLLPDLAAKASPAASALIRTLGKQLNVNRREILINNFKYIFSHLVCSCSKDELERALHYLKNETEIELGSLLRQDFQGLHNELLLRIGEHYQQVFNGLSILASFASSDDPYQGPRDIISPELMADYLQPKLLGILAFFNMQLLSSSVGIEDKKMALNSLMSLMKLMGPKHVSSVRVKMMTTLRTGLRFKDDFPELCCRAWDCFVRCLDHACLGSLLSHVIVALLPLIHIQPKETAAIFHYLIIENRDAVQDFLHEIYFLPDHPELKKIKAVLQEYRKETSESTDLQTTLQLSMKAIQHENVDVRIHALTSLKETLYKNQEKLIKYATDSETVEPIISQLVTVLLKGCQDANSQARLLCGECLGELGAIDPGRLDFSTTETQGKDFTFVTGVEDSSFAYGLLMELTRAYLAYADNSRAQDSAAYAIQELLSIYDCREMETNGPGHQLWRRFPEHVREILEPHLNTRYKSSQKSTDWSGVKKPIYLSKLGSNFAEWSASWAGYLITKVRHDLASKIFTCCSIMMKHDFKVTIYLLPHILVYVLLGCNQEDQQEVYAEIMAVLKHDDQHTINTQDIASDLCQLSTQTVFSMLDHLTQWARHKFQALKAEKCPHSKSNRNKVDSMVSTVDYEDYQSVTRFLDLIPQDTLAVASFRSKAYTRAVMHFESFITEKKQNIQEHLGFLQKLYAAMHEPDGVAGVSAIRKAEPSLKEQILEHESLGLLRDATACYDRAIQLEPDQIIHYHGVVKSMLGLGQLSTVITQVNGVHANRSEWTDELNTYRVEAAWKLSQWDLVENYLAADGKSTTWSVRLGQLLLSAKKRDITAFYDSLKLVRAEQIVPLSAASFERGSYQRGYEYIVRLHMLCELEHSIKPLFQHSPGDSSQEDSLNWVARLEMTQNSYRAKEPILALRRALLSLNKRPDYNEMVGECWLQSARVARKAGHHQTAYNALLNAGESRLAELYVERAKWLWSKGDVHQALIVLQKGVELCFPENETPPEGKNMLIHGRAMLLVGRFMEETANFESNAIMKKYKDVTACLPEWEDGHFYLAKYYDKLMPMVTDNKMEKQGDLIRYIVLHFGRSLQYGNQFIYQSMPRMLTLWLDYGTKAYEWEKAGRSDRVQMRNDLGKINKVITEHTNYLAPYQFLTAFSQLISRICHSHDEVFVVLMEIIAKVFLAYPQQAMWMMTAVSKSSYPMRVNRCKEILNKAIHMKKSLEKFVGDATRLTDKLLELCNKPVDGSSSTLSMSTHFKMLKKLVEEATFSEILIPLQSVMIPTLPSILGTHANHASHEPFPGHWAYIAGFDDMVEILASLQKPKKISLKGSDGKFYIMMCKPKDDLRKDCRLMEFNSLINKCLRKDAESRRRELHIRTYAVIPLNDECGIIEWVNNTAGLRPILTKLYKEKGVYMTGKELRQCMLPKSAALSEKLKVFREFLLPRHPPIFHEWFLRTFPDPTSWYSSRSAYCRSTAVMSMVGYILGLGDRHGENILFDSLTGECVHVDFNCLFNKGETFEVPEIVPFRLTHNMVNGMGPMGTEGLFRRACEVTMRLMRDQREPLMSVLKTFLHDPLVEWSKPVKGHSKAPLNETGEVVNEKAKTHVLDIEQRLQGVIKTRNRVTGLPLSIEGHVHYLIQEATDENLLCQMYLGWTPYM
Chain of PI3K (p110α/p85α) (P42336 whole entry): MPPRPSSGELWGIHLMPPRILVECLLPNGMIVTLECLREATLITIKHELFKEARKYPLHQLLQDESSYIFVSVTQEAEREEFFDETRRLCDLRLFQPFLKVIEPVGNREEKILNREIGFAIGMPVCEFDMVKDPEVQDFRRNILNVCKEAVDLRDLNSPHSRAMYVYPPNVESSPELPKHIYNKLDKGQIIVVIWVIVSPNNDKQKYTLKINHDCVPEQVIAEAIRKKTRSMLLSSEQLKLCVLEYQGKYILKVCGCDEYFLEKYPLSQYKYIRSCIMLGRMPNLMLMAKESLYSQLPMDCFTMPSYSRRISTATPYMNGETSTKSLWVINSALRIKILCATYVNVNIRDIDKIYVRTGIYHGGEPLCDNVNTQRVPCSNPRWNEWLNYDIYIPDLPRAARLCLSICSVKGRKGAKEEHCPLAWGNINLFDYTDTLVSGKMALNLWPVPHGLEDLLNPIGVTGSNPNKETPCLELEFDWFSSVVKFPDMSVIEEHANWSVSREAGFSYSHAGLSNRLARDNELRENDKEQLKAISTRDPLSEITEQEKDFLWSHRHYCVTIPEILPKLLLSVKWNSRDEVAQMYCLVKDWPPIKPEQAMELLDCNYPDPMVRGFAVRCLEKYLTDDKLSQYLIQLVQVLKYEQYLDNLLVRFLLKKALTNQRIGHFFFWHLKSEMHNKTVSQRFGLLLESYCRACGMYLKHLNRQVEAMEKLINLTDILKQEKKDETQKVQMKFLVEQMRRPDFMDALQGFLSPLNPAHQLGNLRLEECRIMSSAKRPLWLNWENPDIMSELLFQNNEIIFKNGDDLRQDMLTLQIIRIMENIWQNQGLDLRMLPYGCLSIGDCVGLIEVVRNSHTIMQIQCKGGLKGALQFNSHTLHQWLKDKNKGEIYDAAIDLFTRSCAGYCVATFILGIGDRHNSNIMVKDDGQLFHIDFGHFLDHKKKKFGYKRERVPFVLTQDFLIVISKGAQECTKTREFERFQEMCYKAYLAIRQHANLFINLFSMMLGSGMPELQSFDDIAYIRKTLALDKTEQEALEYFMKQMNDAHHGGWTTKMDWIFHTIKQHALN
Chain of PI3K (p110α/p85α) (P27986 whole entry partner): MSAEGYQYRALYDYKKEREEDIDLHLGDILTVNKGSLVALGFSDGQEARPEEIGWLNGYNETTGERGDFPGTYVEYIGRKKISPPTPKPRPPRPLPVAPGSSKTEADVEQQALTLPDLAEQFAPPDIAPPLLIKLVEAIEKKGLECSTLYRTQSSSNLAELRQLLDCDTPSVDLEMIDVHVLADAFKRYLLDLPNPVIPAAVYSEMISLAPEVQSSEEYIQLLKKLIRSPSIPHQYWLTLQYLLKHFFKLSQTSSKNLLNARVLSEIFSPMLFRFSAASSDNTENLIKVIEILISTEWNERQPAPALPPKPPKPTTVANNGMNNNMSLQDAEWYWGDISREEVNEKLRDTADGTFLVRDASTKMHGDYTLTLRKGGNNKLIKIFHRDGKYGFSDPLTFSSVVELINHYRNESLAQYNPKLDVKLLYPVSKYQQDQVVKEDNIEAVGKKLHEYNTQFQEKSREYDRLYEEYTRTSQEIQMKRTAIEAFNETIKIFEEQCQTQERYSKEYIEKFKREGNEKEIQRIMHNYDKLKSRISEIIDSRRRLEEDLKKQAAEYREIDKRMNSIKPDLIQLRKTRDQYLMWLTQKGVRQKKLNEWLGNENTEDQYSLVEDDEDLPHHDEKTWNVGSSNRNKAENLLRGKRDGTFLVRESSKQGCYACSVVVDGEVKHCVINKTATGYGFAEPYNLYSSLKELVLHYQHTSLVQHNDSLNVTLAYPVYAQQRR

SMILES	EC50 (ATR; hydroxyurea 2.5 mM) [µM]	further results
CC(C)(O)c1nc(-c2cccc3[nH]ccc23)nc2c1OCC1COCCN21 (centres unmarked) [Example 38]	0.1 to 1	–
CC1(c2nc(-c3cccc4[nH]ccc34)nc3c2OCC2COCCN32)CCCS1(=O)=O (centres unmarked) [Example 41]	0.1 to 1	–
CC(C)(c1nc(-c2cc(F)cc3[nH]ccc23)nc2c1OC[C@@H]1COCCN21)S(C)(=O)=O [Example 71]	< 0.1	IC50 (PI3K (p110α/p85α)): 1.08 µM; IC50 (mTOR): 0.0993 µM; IC50 (DNA-PK): 10 µM
CS(=O)(=O)C1(c2nc(-c3cncc4[nH]ccc34)nc3c2OCC2COCCN32)CCOCC1 (centres unmarked) [Example 9]	0.1 to 1	–
C[S@TB17](=O)(=O)C1(c2nc(-c3cc(F)cc4[nH]ccc34)nc3c2OCCC2COCCN32)CCOCC1 (centres unmarked) [Example 33]	0.1 to 1	–
CNc1nc2cc(F)ccc2n1-c1nc2c(c(C3(S(C)(=O)=O)CCC3)n1)OC[C@@H]1COCCN21 [Example 96]	–	EC50 (ATR; hydroxyurea […]): 0.1 to 1 µM; IC50 (PI3K (p110α/p85α)): 50 µM; IC50 (mTOR): 6.08 µM; IC50 (DNA-PK): 10 µM
CNc1nc2ccccc2n1-c1nc2c(c(C3(S(C)(=O)=O)CCOCC3)n1)OCC1COCCN21 (centres unmarked) [Example 12]	0.1 to 1	–
CS(=O)(=O)C1(c2nc(-c3cccc4[nH]ccc34)nc3c2OC[C@@H]2COCCN32)CCC1 [Example 67]	< 0.1	–
CCOC(=O)N1CCC(c2nc(-c3cccc4[nH]ccc34)nc3c2OC[C@@H]2COCCN32)(S(C)(=O)=O)CC1 [Example 68]	0.1 to 1	–
CC(C)(O)c1nc(-c2cc(F)cc3[nH]ccc23)nc2c1OC[C@@H]1COCCN21 [Example 45]	0.1 to 1	–
CC(C)(c1nc(-c2cccc3[nH]ccc23)nc2c1OCC1COCCN21)S(=O)(=O)C1CC1 (centres unmarked) [Example 4]	< 0.1	–
CC(C)(C#N)c1nc(-c2cccc3[nH]ccc23)nc2c1OCC1COCCN21 (centres unmarked) [Example 40]	0.1 to 1	–
CNc1nc2ccccc2n1-c1nc2c(c(C(C)(C)[S@TB1](C)(=O)=O)n1)OCCC1COCCN21 (centres unmarked) [Example 31]	< 0.1	–
CS(=O)(=O)C1(c2nc(-c3cc(F)cc4[nH]ccc34)nc3c2OCC2COCCN32)CCOCC1 (centres unmarked) [Example 17]	< 0.1	–
CS(=O)(=O)C1(c2nc(-c3ccnc4[nH]ccc34)nc3c2OCC2COCCN32)CCOCC1 (centres unmarked) [Example 18]	< 0.1	–
C[S@TB17](=O)(=O)Nc1nc(-c2cccc3[nH]ccc23)nc2c1OCC1COCCN21 (centres unmarked) [Example 35]	> 1	–
CNc1nc2ccc(Cl)cc2n1-c1nc2c(c(C3(S(C)(=O)=O)CCC3)n1)OC[C@@H]1COCCN21 [Example 95]	> 1	–
CS(=O)(=O)C1(c2nc(-c3cccc4[nH]ccc34)nc3c2OCC2COCCN32)CC1 (centres unmarked) [Example 27]	0.1 to 1	–
COc1cc(-c2nc3c(c(C4(S(C)(=O)=O)CCC4)n2)OC[C@@H]2COCCN32)c2cc[nH]c2c1 [Example 78]	< 0.1	IC50 (PI3K (p110α/p85α)): 4.49 µM; IC50 (mTOR): 0.047 µM
CC(C)Nc1nc2ccccc2n1-c1nc2c(c(C(C)(C)S(C)(=O)=O)n1)OC[C@@H]1COCCN21 [Example 63]	< 0.1	–
COc1cc(-c2nc3c(c(C4([S@TB1](C)(=O)=O)CCOCC4)n2)OCCC2COCCN32)c2cc[nH]c2c1 (centres unmarked) [Example 34]	0.1 to 1	–
CCNc1nc2ccccc2n1-c1nc2c(c(C(C)(C)S(C)(=O)=O)n1)OC[C@@H]1COCCN21 [Example 64]	0.1 to 1	–

SMILES	EC50 (ATR; hydroxyurea 2.5 mM) [µM]	further results
CS(=O)(=O)c1cccc(-c2nc(-c3cccc4[nH]ccc34)nc3c2OCC2COCCN32)c1 (centres unmarked) [Example 43]	0.1 to 1	–
CN1CCC(c2nc(-c3cccc4[nH]ccc34)nc3c2OCC2COCCN32)(S(C)(=O)=O)CC1 (centres unmarked) [Example 36]	> 1	–
CS(=O)(=O)Cc1nc(-c2cccc3[nH]ccc23)nc2c1OCC1COCCN21 (centres unmarked) [Example 7]	0.1 to 1	–
COc1ccc(-c2nc3c(c(C4(S(C)(=O)=O)CCOCC4)n2)OCC2COCCN32)c2cc[nH]c12 (centres unmarked) [Example 37]	0.1 to 1	–
c1cc(-c2nc(-c3cccc4[nH]ccc34)c3c(n2)N2CCOCC2CO3)c2cc[nH]c2c1 (centres unmarked) [Example 42]	0.1 to 1	–
CC(C)(c1nc(-c2ccnc3[nH]ccc23)nc2c1OCC1COCCN21)S(C)(=O)=O (centres unmarked) [Example 16]	0.1 to 1	–
CNc1nc2cc(C#N)ccc2n1-c1nc2c(c(C(C)(C)S(C)(=O)=O)n1)OC[C@@H]1COCCN21 [Example 113]	–	EC50 (ATR; hydroxyurea […]): > 1 µM
CC(C)(c1nc(-c2cccc3[nH]ccc23)nc2c1OCC[C@H]1COCCN21)S(C)(=O)=O [Example 24]	0.1 to 1	–
CNc1nc2ccccc2n1-c1nc2c(c(C(C)(C)O)n1)OCC1COCCN21 (centres unmarked) [Example 39]	0.1 to 1	–
CC(C)(c1nc(-c2cccc3[nH]ncc23)nc2c1OC[C@H]1COCCN21)S(C)(=O)=O [Example 21]	> 1	–
CCCNc1nc2ccccc2n1-c1nc2c(c(C(C)(C)S(C)(=O)=O)n1)OC[C@@H]1COCCN21 [Example 65]	< 0.1	–
CN(C)c1nc2ccccc2n1-c1nc2c(c(C(C)(C)S(C)(=O)=O)n1)OC[C@@H]1COCCN21 [Example 79]	0.1 to 1	IC50 (PI3K (p110α/p85α)): 28.6 µM
CNc1nc2cc(Cl)ccc2n1-c1nc2c(c(C3(S(C)(=O)=O)CCC3)n1)OC[C@@H]1COCCN21 [Example 94]	> 1	–
CC(C)(c1nc(-c2c(F)ccc3[nH]ccc23)nc2c1OCC1COCCN21)S(C)(=O)=O (centres unmarked) [Example 14]	0.1 to 1	–
COc1cc(-c2nc3c(c(C4(S(C)(=O)=O)CCOCC4)n2)OCC2COCCN32)c2cc[nH]c2c1 (centres unmarked) [Example 19]	< 0.1	–
CNc1nc2ccccc2n1-c1nc2c(c(C3(S(C)(=O)=O)CCOCC3)n1)OCCC1COCCN21 (centres unmarked) [Example 32]	> 1	–
CS(=O)(=O)C1(c2nc(-c3c(F)ccc4[nH]ccc34)nc3c2OCC2COCCN32)CCOCC1 (centres unmarked) [Example 13]	0.1 to 1	–
CS(=O)(=O)C1(c2nc(-c3cccc4[nH]ccc34)nc3c2OC[C@@H]2COCCN32)CCNCC1 [Example 69]	0.1 to 1	–
CS(=O)(=O)C1(c2nc(-c3cccc4[nH]ccc34)nc3c2OCC[C@@H]2COCCN32)CCOCC1 [Example 22]	0.1 to 1	–
Cc1cc2c(-c3nc4c(c(C5(S(C)(=O)=O)CCOCC5)n3)OCC3COCCN43)cccc2[nH]1 (centres unmarked) [Example 20]	0.1 to 1	–
CC(C)(c1nc(-c2cccc3[nH]ccc23)nc2c1OCC[C@@H]1COCCN21)S(C)(=O)=O [Example 25]	0.1 to 1	IC50 (PI3K (p110α/p85α)): 23.4 µM; IC50 (mTOR): 0.582 µM
CS(=O)(=O)C1(c2nc(-c3ccc(F)c4[nH]ccc34)nc3c2OC[C@@H]2COCCN32)CCC1 [Example 76]	> 1	IC50 (PI3K (p110α/p85α)): 50 µM

Source: patent publication US9453031B2, “Chemical entities” (Fundación Centro Nacional de Investigaciones Oncológicas …, priority 2013, dated 2016)
